Tested on: MDA-MB-231
Assay: Co-localization of probe with organelle trackers, live cell imaging
Type: cell-based, human
Conditions: live cells, 2 µM
From the text: It is important to determine the intracellular accumulation of compound 9 as this may aid in identifying its intracellular interactions. To facilitate these experiments, a series of orthogonal fluorescent organelle markers were used for co-localization studies. The organelle marker set included indicators for the lysosome (Lysotracker Red), the mitochondria (MitoTracker Deep Red), and the endoplasmic reticulum (ER tracker Blue/White). Where applicable, nuclei were stained with Hoechst (Blue). All these markers were compatible with BODIPY-FL (green) to allow for flexible combinations. […] First, to evaluate the accumulation of compound 9a after 30 min treatment at 1 µM, washout experiments were conducted as shown in Figure 7A in the presence of Hoechst nuclear stain. Distinct green specks were observed near the nucleus of the cell.
Co-localization studies were conducted in 8-well chambered coverslips (ibidi GmbH µ-slide # 80826) for MDA-MB-231. Coverslips were first coated with 0.1% Gelatin for 30 min for better cell adherence. Cells were then plated in phenol red free medium at a density of 4 × 10^4 cells per well and incubated at 37 °C overnight. […]

COC1=CC23CCCN2CCc2cc4c(cc2C3C1OC(=O)CCC1=[N+]2C(=Cc3c(C)cc(C)n3[B-]2(F)F)C=C1)OCO4 (stereo not shown) [9a]
co-localization with endoplasmic reticulum (ER-Tracker Blue/White): Co-localization of probe 9a with ER-Tracker Blue/White

Source: article PMC6571673, “Cytostatic and Cytotoxic Natural Products against Cancer Cell Models” (Molecules, 2019)
